For 1 molecule, inhibition results are on record in PMC4386068 (Journal of chemical information and modeling, 2015).

The target in the assay is InhA (Mtb enoyl-acyl-carrier-protein reductase) (Mycobacterium tuberculosis, UniProt P9WGR1). Briefly: InhA enzyme inhibition assay, % inhibition at […] without pre-incubation. It is filed as biochemical. To be noted: read-out: % inhibition at 100 nM.
Chain of InhA (Mtb enoyl-acyl-carrier-protein reductase) (P9WGR1 whole entry, looked up): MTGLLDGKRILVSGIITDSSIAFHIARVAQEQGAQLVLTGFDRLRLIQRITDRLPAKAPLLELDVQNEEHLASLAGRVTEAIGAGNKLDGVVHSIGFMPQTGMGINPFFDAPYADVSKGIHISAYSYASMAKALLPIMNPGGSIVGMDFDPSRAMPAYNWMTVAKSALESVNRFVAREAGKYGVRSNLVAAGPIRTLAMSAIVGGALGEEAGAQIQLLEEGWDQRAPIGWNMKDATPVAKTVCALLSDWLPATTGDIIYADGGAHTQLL

As to `CCCCCCc1ccc(Oc2ccccc2C)c(O)c1` [PT70], the inhibition at 0.1 µM stood at 75%.

Usually inhibition stands for the change of the read-out against control, counted positive when it falls.
